Measurements taken from US11180510B2, “Xanthine derivatives and uses thereof as inhibitors of bromodomains of BET proteins” (Centre national de la recherche scientifique, priority 2017, dated 2021).
“And” between values parts separate entries of the source, which are not always exact repeats. Equal entries are not always repeated. Where two headings read alike, the source gives them in different places.

Key:
Format in all cases: binding
[1] = target: T1, Brd2(BD1) (Homo sapiens, UniProt P25440); assay: HTRF BET selectivity profile, Brd2(BD1); details: for Ratio 2-1 vs 2-2: selectivity Brd2(BD1) vs Brd2(BD2), HTRF IC50
T1 construct: GST tagged bromodomain proteins were purchased from BPS Bioscience; purchased BPS Bioscience
Protocol: (§1) HTRF assays were performed in white 384 Well Small Volume™ HiBase Polystyrene Microplates (Greiner) with a total working volume of 20 μL. Compounds were dispensed, with 100 nL per well (0.5% final DMSO), from a concentration stock of 10 mM in 100% DMSO and with serial DMSO dilutions, using an Echo® 550 robot from the Access Labcyte platform (Labcyte) and based on the transfer of liquid by acoustic wave. Then, 19.5 μL of buffer is added, using a Multidrop Combi (Thermo Fisher Scientific). […] All HTRF reagents (donor and acceptor) were purchased from CisBio Bioassays and reconstituted according to the supplier protocols. The peptide was purchased from Genic Bio Synthetic. The BRD4(1) protein was produced and purified in the laboratory.
(§2) Percentage of inhibition was calculated using the following equation: % inhibition=[(compound signal)−(min signal)]/[(max signal)−(min signal)]*100, where ‘max signal’ is the signal ratio with the compound vehicle alone (DMSO) and ‘min signal’ the signal ratio without peptide.
(§3) Selectivity profiles of bromodomain inhibitors were performed as described in HTRF screen section. […] HTRF detection reagents (EPIgeneous™ Binding Domain kits) were purchased from Cisbio Bioassays and used according to supplier's protocol. GST tagged bromodomain proteins were purchased from BPS Bioscience and histone peptide from Genic Bio Synthetic.

[2] = target: T2, Brd4(BD2) (Homo sapiens, UniProt O60885); assay: HTRF BET selectivity profile, Brd4(BD2)
T2 construct: GST tagged bromodomain proteins were purchased from BPS Bioscience; purchased BPS Bioscience
Protocol: (§4) HTRF assays were performed in white 384 Well Small Volume™ HiBase Polystyrene Microplates (Greiner) with a total working volume of 20 μL. Compounds were dispensed, with 100 nL per well (0.5% final DMSO), from a concentration stock of 10 mM in 100% DMSO and with serial DMSO dilutions, using an Echo® 550 robot from the Access Labcyte platform (Labcyte) and based on the transfer of liquid by acoustic wave. Then, 19.5 μL of buffer is added, using a Multidrop Combi (Thermo Fisher Scientific). Finally, for each assay, 200 nL of master mix (protein+donor+acceptor) and 200 nL of peptide Is added in the assay wells according to the final concentration and buffer described in Table 3, using the Echo® 550 robot (Labcyte). The IC50 measurements were performed in triplicates (Table 2 and 3). All HTRF reagents (donor and acceptor) were purchased from CisBio Bioassays and reconstituted according to the supplier protocols. The peptide was purchased from Genic Bio Synthetic. The BRD4(1) protein was produced and purified in the laboratory. HTRF signals were measured, after a final incubation (3 h or 6 h or overnight at room temperature or 4° C., according to the bromodomain), using a PHERAstar FS (BMG Labtech) with an excitation filter at 337 nm and fluorescence wavelength measurement at 620 and 665 nm, an integration delay of 60 μs and an integration time of 500 μs. Results were analyzed with a two-wavelengths signal ratio: [intensity (665 nm)/intensity (620 nm)]*104.
as §2, §3

[3] = target: T3, BRD4(BD1) (Homo sapiens, UniProt O60885); assay: HTRF assay, BRD4(BD1)/histone peptide interaction; parameters: made in house; details: for IC50: HTRF; for Ratio 4-1 vs 4-2: selectivity Brd4(BD1) vs Brd4(BD2), HTRF IC50
Protocol: as §1, §2, §3

[4] = target: Brd3(BD1) (Homo sapiens, UniProt Q15059); assay: HTRF BET selectivity profile, Brd3(BD1); parameters: GST tagged bromodomain proteins were purchased from BPS Bioscience; purchased BPS Bioscience; details: for Ratio 3-1 vs 3-2: selectivity Brd3(BD1) vs Brd3(BD2), HTRF IC50
Protocol: as §1, §2, §3

[5] = target: T4, Brd2(BD2) (Homo sapiens, UniProt P25440); assay: HTRF BET selectivity profile, Brd2(BD2)
T4 construct: GST tagged bromodomain proteins were purchased from BPS Bioscience; purchased BPS Bioscience
Protocol: as §1, §2, §3

[6] = target: T5, Brd3(BD2) (Homo sapiens, UniProt Q15059); assay: HTRF BET selectivity profile, Brd3(BD2)
T5 construct: GST tagged bromodomain proteins were purchased from BPS Bioscience; purchased BPS Bioscience
Protocol: as §4, §2, §3

[7] = target: T6, Brdt(BD1) (Homo sapiens, UniProt Q58F21); assay: HTRF BET selectivity profile, Brdt(BD1)
T6 construct: GST tagged bromodomain proteins were purchased from BPS Bioscience; purchased BPS Bioscience
Protocol: as §4, §2, §3

[8] = target: T3, BRD4(BD1); assay: Isothermal Titration Calorimetry; details: ITC; read-out: Binding affinity (Kd) to BRD4(1) by Isothermal Titration Calorimetry
Protocol: FIG. 1. Isothermal Titration Calorimetry (ITC) of 43c. Thermogram (top) and non-linear least squares fit model of the integrated data (bottom) at 15° C. of Brd4 (BD1) […] as a function of the molar ratio of ligand to the protein.
ITC was used to evaluate the thermodynamics parameters of the binding between BRD4 (BD1) and the selected compounds. Titrations were carried out on a MicroCal ITC200 microcalorimeter (GE Healthcare, Piscataway, N.J.). Each experiment was designed using a titrant concentration (protein in the syringe generally between 100 and 400 μM) set 10 to 15 times the analyte concentration (compound in the cell generally between 10 and 40 μM) and using 13 injections at 25° C. A first small injection (generally 0.2 μL) was included in the titration protocol in order to remove air bubbles trapped in the syringe prior titration. Raw data were scaled after setting the zero to the titration saturation heat value. Integrated raw ITC data were fitted to a one site non-linear least squares fit model using the MicroCal Origin plugin as implemented in Origin 7 (Origin Lab). Finally, ΔG and TΔS values were calculated from the fitted ΔH and KA values using the equations ΔG=−R.T.inKA and ΔG=ΔH−TΔS.

[9] = mean of three experiments, NA = IC50 > 50 μM, read-out: Brd4(8D1) IC50
[10] = triplicates, NA = IC50 > maximal concentration of compound used

T1 sequence (P25440 74-180 limits assumed): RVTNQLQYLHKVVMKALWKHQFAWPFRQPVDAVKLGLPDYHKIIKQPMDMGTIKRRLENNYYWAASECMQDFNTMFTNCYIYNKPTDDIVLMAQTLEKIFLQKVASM
Chain of Brd3(BD1) (Q15059 34-140 limits assumed): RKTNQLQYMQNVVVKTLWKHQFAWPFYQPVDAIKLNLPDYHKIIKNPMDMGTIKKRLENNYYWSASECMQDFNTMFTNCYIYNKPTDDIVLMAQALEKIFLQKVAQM
T5 sequence (Q15059 306-415 limits assumed): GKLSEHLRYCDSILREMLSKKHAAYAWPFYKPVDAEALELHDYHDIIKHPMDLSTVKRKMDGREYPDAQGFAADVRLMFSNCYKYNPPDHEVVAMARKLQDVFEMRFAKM
T4 sequence (P25440 344-453 limits assumed): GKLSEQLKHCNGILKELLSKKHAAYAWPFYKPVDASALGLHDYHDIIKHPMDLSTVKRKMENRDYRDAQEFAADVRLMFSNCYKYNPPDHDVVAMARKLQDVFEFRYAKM

IC50 ([1]; read-out: Brd2(BD1) IC50)	Ratio 2-1 vs 2-2 [1]	IC50 [2]	IC50 [3, 9]	IC50 [3, 10]	Ratio 4-1 vs 4-2 [3]	IC50 [4]	Ratio 3-1 vs 3-2 [4]	IC50 ([5]; read-out: Brd2(BD2) IC50)	IC50 [6]	IC50 [7]	IC50 [1]	IC50 [5]	Kd [8]	Compound
3490 nM	2	8310 nM	766 nM	766 nM	11	940 nM	3	5580 nM	3030 nM	2150 nM	–	–	–	CCn1cnc2c1c(=O)[nH]c(=O)n2Cc1ccc(CNS(=O)(=O)c2ccc3c(c2)CCC(=O)N3)cc1 [Compound 27b]
4350 nM	0.7	4210 nM	3460 nM	3500 nM	1	5710 nM	0.4	3080 nM	2130 nM	3360 nM	–	–	–	CCn1cnc2c1c(=O)[nH]c(=O)n2Cc1ccc(CNS(=O)(=O)c2ccc3c(c2)CCCC(=O)N3)c2ccccc12 [Compound 31c]
–	0.9	28000 nM	984 nM	964 nM and 2700 nM	29	9600 nM	0.8	–	7270 nM	9540 nM	4370 nM	3940 nM	–	CCn1c(CSc2nc3nc(C)cc(C)n3n2)nc2c1c(=O)[nH]c(=O)n2Cc1ccc(CNS(=O)(=O)c2ccc3c(c2)CCCC(=O)N3)cc1 [Compound 32b]
–	–	–	–	371 nM	–	–	–	–	–	–	–	–	20500 nM	CCn1cnc2c1c(=O)[nH]c(=O)n2Cc1ccc(CNC(=O)c2ccc(Cn3cccc3)cc2)cc1 [Compound 33a]
367 nM	>6	4390 nM	202 nM	202 nM	22	258 nM	10	2260 nM	2440 nM	474 nM	–	–	–	CCn1cnc2c1c(=O)[nH]c(=O)n2Cc1ccc(CNS(=O)(=O)c2ccc(OC3CCCCC3)cc2)cc1 [Compound 43a]
260 nM	9	3300 nM	96 nM	96 nM	34	130 nM	22	2400 nM	2900 nM	1100 nM	–	–	110 nM	CCn1cnc2c1c(=O)[nH]c(=O)n2Cc1ccc(CNS(=O)(=O)c2ccc(OC3CCOCC3)cc2)cc1 [Compound 43b]
321 nM	3	2670 nM	87 nM	87 nM	31	161 nM	10	1070 nM	1640 nM	432 nM	–	–	60 nM	CCn1cnc2c1c(=O)[nH]c(=O)n2Cc1ccc(CNS(=O)(=O)c2ccc(N3CCOCC3)cc2)cc1 [Compound 45a]
